In patent US8536208B2, “Antifungal composition” (Basilea Pharmaceutica AG, priority 2007, dated 2013):

Test: Single dose bioavailability study on fasted subjects
Conditions: human, in vivo, Galenical formulation Example 4 (composition 2.3)
Experimental: A single dose bioavailability study is conducted on N fasted subjects using the composition of this Example (N=7, dose of compound I-A 433.3 mg corresponding to 400 mg free base of formula I-B), and the same amount in powder form filled into hard capsules, (N=6). BAL8557, a water-soluble prodrug of the compound of formula I-B according to EP-A-1 280 795, is used as a standard (capsule comprising BAL 8557 in powder form in an amount corresponding to 400 mg free base of formula I-B; N=3).

[1] = single oral dose 433.3 mg I-A (400 mg free base I-B), N=7

bioavailability (433.3 mg, single oral dose equal to 400 mg free base I-B, BAL 8557 as standard, read-out: Frel (relative bioavailability)): 90%
Cmax [1]: 4410 ng/mL
Tmax [1]: 1.5 h
half-life [1]: 88 h
AUC (single oral dose 433.3 mg I-A (400 mg free base I-B), N=7, read-out: AUCinfinite): 193 µg·h/mL
SMILES: C[C@@H](c1nc(-c2ccc(C#N)cc2)cs1)[C@](O)(Cn1cncn1)c1cc(F)ccc1F.Cl [Compound I-A]
